Consider 17 compounds from patent publication US20190375708A1 (VenatoRx Pharmaceuticals, Inc., priority 2018, published 2019).

The test system of series [1] is HBV replication in HepAD38 cells. Briefly: Anti-HBV replication assay in HepAD38 cells (QPCR of extracellular HBV DNA). The class given is cell-based, HBV (genotype D, serotype ayw). Particulars: Hepatitis B virus. Here is the method: The anti-HBV activity of the Capsid Assembly Modulators (CAMs) was evaluated in a cell based assay utilizing the human hepatoma cell line HepAD38 (Ladner, S K., et al., 1998). HepAD38 cells were derived from the parental line, HepG2, that were stably transfected with a construct containing an HBV genome (genotype D, serotype ayw) under the control of a tetracycline repressible CMV promoter. Upon removal of tetracycline, viral pre-genomic RNA (pgRNA) and mRNAs are expressed and infectious viral particles are assembled and secreted into the culture medium providing a reliable, robust system to measure multiple steps of the HBV life cycle. Disruption of capsid formation results in reduced levels of DNA-containing virus particles that are released into the culture supernatant. To quantify the effect of CAMs on HBV replication, we developed a sensitive QPCR-based assay that measures extracellular HBV DNA levels upon treatment of HepAD38 cells with various concentrations of test compounds.
HepAD38 cells were maintained in DMEM/F12 medium containing 10% FBS, 400 μg/mL G418 and 0.3 μg/mL tetracycline (tet+ media) to maintain repression of HBV replication. To evaluate each compound, HepAD38 cells were seeded into 24-well collagen coated culture plates (Corning BioCoat) at a density of 200,000 cells per well in 1 mL of medium without tetracycline (tet-media) and allowed to adhere overnight at 37° C., 5% CO2 in a humidified incubator. The following day, media was refreshed and a dose range of each compound was prepared by performing 1 log10 serial dilutions in 100% DMSO at 200× the desired assay concentration. Dilutions were then added to the cells resulting in a final dose range of 1 μM to 10 μM and the plates were returned to the incubator. Following 7 days of incubation, culture supernatants were harvested and HBV DNA levels were evaluated by QPCR and compared to the vehicle treated control wells (i.e. DMSO alone).
To quantify HBV DNA levels, cell culture supernatants were diluted 1:10 in sterile, nuclease-free water (Gibco). The diluted supernatants were subsequently added to a PCR master mix containing 1× Roche Light Cycler Master Mix, 0.5 μM forward primer, 0.5 μM reverse primer (Fwd: 5′-[…] (SEQ ID NO 1); Rev: 5′-[…] (SEQ ID NO 2)), 0.2 μM Roche Universal Probe Library Probe 25. The volume was brought to 20 μL with nuclease-free water and amplification of the HBV target sequence was performed using a Roche LightCycler 480 QPCR instrument. PCR extended out to 45 cycles with each cycle consisting of a denaturation step at 95° C. for 10 sec., followed by an annealing step at 60° C. for 10 sec. and a brief extension step at 72° C. for 1 sec.
Extracellular HBV DNA levels, expressed in copies/mL, were determined by comparison to a standard curve (10^2-10^9 copies/mL) using the Roche LightCycler analysis software. These values were subsequently converted to percent inhibition of HBV replication by dividing the HBV DNA levels in the experimental samples with those obtained from the vehicle control (˜1-2×10^5 copies/mL). Potency, expressed as an EC50 (the effective concentration required to inhibit 50% of HBV replication), was calculated from the dose-response curve using a 4-parameter non-linear regression analysis (GraphPad Prism). The nucleoside analog inhibitor entecavir was used as a positive control to validate each assay run. The EC50 value of entecavir in the HepAD38 assay was 0.5 nM, as previously reported in the literature.

Series [2] in a line: In vitro cytotoxicity assay (MTT cell viability) in HepG2 cells. The class given is cell-based, human. To be noted: human. The method, then:
To evaluate antiviral selectivity, the cytotoxic activity of each compound was determined using a standard cell viability assay performed on the parental HepG2 cell line. Cell viability was determined by measuring the conversion of 3-(4,5-dimethylthiazol-2-yl)-2,5-diphenyltetrazolium bromide (MTT) to the insoluble formazan salt crystal that occurs in live cells. Briefly, HepG2 cells were seeded in 96-well plates at a density of 20,000 cells per well in EMEM+10% FBS (complete growth medium) and allowed to adhere overnight in a 37° C., 5% CO2 humidified incubator. The next day, test agents were prepared by performing 8 half-log10 serial dilutions in 100% DMSO at 200× the final desired concentration in the assay. Compounds were tested over a range of concentrations from 30 μM to 1.0 nM in the assay. HepG2 cells were incubated in the presence of various concentrations of CAMs for 7 days in a 37° C., 5% CO2 humidified incubator. At the completion of the 7-day incubation period, MTT reagent was added to each well and the mixture was incubated for an additional 3-4 hours. At the completion of the incubation period, all wells were aspirated to remove the culture medium. The formazan crystals were solubilized from the cell monolayers with 100% DMSO. Plates were briefly mixed on an orbital shaker and absorbance was measured at 492 nm using a Perkin-Elmer EnVision multi-label plate reader. All absorbance values were converted to a percentage of the signal obtained from the vehicle treated controls. Absorbance values at 492 nm are directly proportional to the number of viable cells present in the sample. A CC50 value (cytotoxic concentration that results in loss of 50% cell viability) was calculated from the dose-response curve by 4-parameter, non-linear regression analysis using the GraphPad Prism software. The positive control compound, staurosporine, reduced the viability of HepG2 cells in a dose-dependent manner (CC50=100 nM).

The mark [3] stands for this setting: 168 h, 7 days incubation, extracellular HBV DNA by QPCR, read-out: Anti-HBV EC50.

Where two headings read alike, the source gives them in different places.

As to `Cc1cc(NC(=O)c2c(C)c(C(=O)C(=O)N3CCc4nc(N)sc4C3)n(C)c2C)ccc1F` [Example 49, 5-(2-(2-amino-6,7-dihydrothiazolo[5,4-c]pyridin-5(4H)-yl)-2-oxoacetyl)-N-(4-fluoro-3-methylphenyl)-1,2,4-trimethyl-1H-pyrrole-3-carboxamide], the concentration for a half-maximal effect (EC50) – broadly, the concentration that produces a half-maximal response – in series [1] (setting [3]) fell in the range of 50 to 499 nM. Further, the CC50 (as a rule, the concentration giving 50% cytotoxicity) at 7 days in series [2] is more than 30000 nM.
For `Cc1cc(NC(=O)c2c(C)c(C(=O)C(=O)N[C@H](C)CO)n(C)c2C)ccc1F` [Example 219, (R)-N-(4-fluoro-3-methylphenyl)-5-(2-((1-hydroxypropan-2-yl)amino)-2-oxoacetyl)-1,2,4-trimethyl-1H-pyrrole-3-carboxamide], the EC50 in series [1] (setting [3]) was less than 50 nM. Moreover, in series [2], the CC50 at 7 days was more than 30000 nM.
In the case of `Cc1cc(NC(=O)c2c(C)c(C(=O)C(=O)N[C@H]3COC[C@@H]3O)n3c2CCCC3)ccc1F` [Example 439, N-(4-fluoro-3-methylphenyl)-3-(2-(((3S,4R)-4-hydroxytetrahydrofuran-3-yl)amino)-2-oxoacetyl)-2-methyl-5,6,7,8-tetrahydroindolizine-1-carboxamide], the EC50 in series [1] (setting [3]) lay within 50 to 499 nM. This compound showed a CC50 at 7 days in series [2] of more than 30000 nM.
On the same counts, the results for `Cc1cc(NC(=O)c2c(C)c(C(=O)C(=O)NC(C)(C)CO)n3c2CCCC3)cnc1F` [Example 478, N-(6-fluoro-5-methylpyridin-3-yl)-3-(2-((1-hydroxy-2-methylpropan-2-yl)amino)-2-oxoacetyl)-2-methyl-5,6,7,8-tetrahydroindoliizine-1-carboxamide] are more than 1000 nM and more than 30000 nM.
For `Cc1c(C(=O)Nc2ccc(F)c(Cl)c2)c(C)n(C)c1C(=O)C(=O)Nc1ccccn1` [Example 309, N-(3-chloro-4-fluorophenyl)-1,2,4-trimethyl-5-(2-oxo-2-(pyridin-2-ylamino)acetyl)-1H-pyrrole-3-carboxamide] the same measures were 50 to 499 nM and more than 30000 nM.
On the same counts, the results for `Cc1cc(NC(=O)c2c(C)c(C(=O)C(=O)N[C@H]3COC[C@@H]3N3CCOCC3)n(C)c2C)ccc1F` [Example 711, N-(4-fluoro-3-methylphenyl)-1,2,4-trimethyl-5-(2-(((3R,4R)-4-morpholinotetrahydrofuran-3-yl)amino)-2-oxoacetyl)-1H-pyrrole-3-carboxamide] are less than 50 nM and more than 30000 nM.
With `Cc1cc(NC(=O)c2c(C)c(C(=O)C(=O)NC3CCCCC3)n(C)c2C)ccc1F` [Example 262, 5-(2-(cyclohexylamino)-2-oxoacetyl)-N-(4-fluoro-3-methylphenyl)-1,2,4-trimethyl-1H-pyrrole-3-carboxamide], the EC50 in series [1] (setting [3]) was less than 50 nM. In series [2], the CC50 at 7 days was in the range of 5000 to 30000 nM.
For `O=C(N[C@H]1C[C@H](O)C1)C(=O)c1c(Cl)c(C(=O)Nc2ccc(F)c(F)c2)c2n1CCCC2` [Example 533, 2-chloro-N-(3,4-difluorophenyl)-3-(2-(((1r,3r)-3-hydroxycyclobutyl)amino)-2-oxoacetyl)-5,6,7,8-tetrahydroindolizine-1-carboxamide] the same measures were 500 to 1000 nM and more than 30000 nM.
On the same counts, the results for `Cc1c(C(=O)Nc2ccc(F)c(Cl)c2)c2n(c1C(=O)C(=O)NCc1cnc(N)s1)CCCC2` [Example 448, 3-(2-(((2-aminothiazol-5-yl)methyl)amino)-2-oxoacetyl)-N-(3-chloro-4-fluorophenyl)-2-methyl-5,6,7,8-tetrahydroindolizine-1-carboxamide] are less than 50 nM and 5000 to 30000 nM.
On the same counts, the results for `Cc1cc(NC(=O)c2c(C)c(C(=O)C(=O)NCC3(O)CCOCC3)n(C)c2C)ccc1F` [Example 150, N-(4-fluoro-3-methylphenyl)-5-(2-(((4-hydroxytetrahydro-2H-pyran-4-yl)methyl)amino)-2-oxoacetyl)-1,2,4-trimethyl-1H-pyrrole-3-carboxamide] are less than 50 nM and more than 30000 nM.
Take `Cc1cc(NC(=O)c2c(C)c(C(=O)C(=O)NCc3cnc(N)s3)n(C)c2C)cnc1F` [Example 171, 5-(2-(((2-aminothiazol-5-yl)methyl)maino)-2-oxoacetyl)-N-(6-fluoro-5-methylpyridin-3-yl)-1,2,4-trimethyl-1H-pyrrole-3-carboxamide]: the EC50 in series [1] (setting [3]) is less than 50 nM. In addition, the CC50 at 7 days in series [2] was more than 30000 nM.
With `Cc1cc(NC(=O)c2cc(C(=O)C(=O)NC(C)(C)CO)n3c2CCCC3)ccc1F` [Example 411, N-(4-fluoro-3-methylphenyl)-3-(2-((1-hydroxy-2-methylpropan-2-yl)amino)-2-oxoacetyl)-5,6,7,8-tetrahydroindolixzine-1-carboxamide], the EC50 in series [1] (setting [3]) fell in the range of 50 to 499 nM. In addition, in series [2], the CC50 at 7 days is more than 30000 nM.
On the same counts, the results for `Cc1cc(NC(=O)c2c(C)c(C(=O)C(=O)NC3(C(=O)N[C@H](C)C(F)(F)F)CCOCC3)n(C)c2C)ccc1F` [Example 605, (R)-N-(4-fluoro-3-methylphenyl)-1,2,4-trimethyl-5-(2-oxo-2-((4-((1,1,1-trifluoropropan-2-yl)carbamoyl)tetrahydro-2H-pyran-4-yl)amino)acetyl)-1H-pyrrole-3-carboxamide] are less than 50 nM and more than 30000 nM.
On the same counts, the results for `Cc1cc(NC(=O)c2c(C)c(C(=O)C(=O)NC3(c4nc(-c5cnccn5)no4)CCCCC3)n(C)c2C)ccc1F` [Example 631, N-(4-fluoro-3-methylphenyl)-1,2,4-trimethyl-5-(2-oxo-2-((1-(3-(pyrazin-2-yl)-1,2,4-oxadiazol-5-yl)cyclohexyl)amino)acetyl)-1H-pyrrole-3-carboxamide] are less than 50 nM and more than 30000 nM.
Consider `C=C1[C@H](CO)[C@@H](O)C[C@@H]1n1cnc2c(=O)[nH]c(N)nc21` [entecavir, reference compound], for which the EC50 in series [1] (positive control, read-out: EC50 in the HepAD38 assay) came to 0.5 nM.
As to `CN[C@@H]1C[C@H]2O[C@@](C)([C@@H]1OC)n1c3ccccc3c3c4c(c5c6ccccc6n2c5c31)C(=O)NC4` [staurosporine, reference compound], the CC50 at 7 days in series [2] (positive control, HepG2 cells, 7 days, MTT, read-out: CC50 (loss of 50% cell viability)) came to 100 nM.
`Cc1c(C(=O)Nc2ccc(F)c(Cl)c2)c(C)n(C)c1C(=O)C(=O)Nc1ccc(F)cn1` [Example 310, N-(3-chloro-4-fluorophenyl)-5-(2-((5-fluoropyridin-2-yl)amino)-2-oxoacetyl)-1,2,4-trimethyl-1H-pyrrole-3-carboxamide]: in series [1] (setting [3]), the EC50 was less than 50 nM.
